“Also recorded” adds a separate entry of the source.
What was measured:
[1] = system: RNA targets containing hexameric r(CUGCUG)-repeats (T1-T8); test: UV melting experiments of MPγPNA probes with RNA targets; assay type: binding; conditions: for trend of Tms with number of binding-sites in the targets: 10 mM NaPi, 150 mM KCl, 2 mM MgCl2, pH 7.4, 8 μM strand concentration; for differences in the Tms of RNAs with mismatched probes: single (P5) and double (P6) base mismatch probes
Protocol: FIG. 7. UV-melting profiles of PI through P4 with T6. The concentration of T6 was 1 μM and that of each probe was 6 μM, prepared in a physiologically relevant buffer.
FIG. 8. UV-melting profiles of P4-RNA heteroduplexes in a physiologically relevant buffer at 8 μM strand concentration. The samples were prepared by mixing 8 μM of P4 with the respective RNA targets at the following concentrations: T1=8.0 μM, T2=4.0 μM, T4=2.0 μM, T6=1.3 μM, T8=1.0 μM in a physiological buffer and annealed at 90° C. for 5 min, followed by a gradual cooling to room temperature.
FIG. 9. UV-melting transitions of RNAs and the corresponding probe-RNA heteroduplexes containing the perfectly-matched and mismatched sequences as a function of the number of r(CUGCUG)n-binding-sites in the targets. Inset: UV-melting profiles Of RNA with P5 and P6 containing single and double base-mismatches, respectively.
UV Melting Experiments: All UV-melting samples were prepared by mixing MPγPNA with RNA targets at the indicated concentrations in a physiologically simulated buffer (10 mM NaPi (sodium phosphate buffer), 150 mM KCl, 2 mM MgCl2; pH 7-4), and annealed by incubation at 90° C. for 5 min followed by a gradual cooling to room temperature. UV melting curves were collected using Agilent Cary UV-Vis 300 spectrometer equipped with a thermoelectrically controlled multi-cell holder. UV-melting spectra were collected by monitoring UV-absorption at 260 nm from 25° C. to 95° C. in the heating runs, and from 95° C. to 25° C. in the cooling runs, both at the rate of 0.2° C. per min. […] The recorded spectra were smoothed using a 20-point adjacent averaging algorithm. The first derivatives of the melting curves were taken to determine the melting temperatures of the duplex.
All the experiments were conducted at a physiologically relevant ionic strength (10 mM NaPi, 150 mM KCl, and 2 mM MgCl2 at pH 7.4). RNA concentrations were prepared such that the number of r(CUGCUG)-repeats in each sample was the same. […] Based on this finding, we selected P4 and carried out UV-melting study with the various RNA targets. […] Pyrene-pyrene interaction is evident from the inverse absorption profiles of P4-T6 and P4-T8 in the 40-70° C. temperature range. Upon heating, the solvophobic effect becomes more pronounced due to the inverse intensity distribution of vibronic transition of pyrene excimer relative to monomer, Ae^o→o/Am^o→o˜0.6, prior to their dissociation upon further heating. […] The Tms of the P4-RNA series follow a positive linear correlation, Y=66+2X, with X being the number of binding-sites in the targets (FIG. 9). […] Such a phenomenon was also observed with PNA-ligand conjugates.

[2] = system: T8 RNA (r(CUGCUG)-repeats), with or without competing T1; test: Real-time fluorescent binding kinetics
Protocol: (§1) FIG. 10. Fluorescent spectra of P4-RNA duplexes at equimolar concentrations (P4=1 μM; T1=1 μM, T2=½, T4 ¼, T6=⅙, T8 ⅛) following the incubation at 37° C. for 1 hr and excitation at 345 nm. Inset: Fluorescent signals at 480 nm as a function of time following the addition of P4 (1 μM) to T8 (⅛ μM), and P4 (1 μM) to [T1 (1 μM)+T8 (⅛ μM)] at 37° C.
Real-Time Fluorescent Binding Kinetics: For real-time fluorescent kinetic experiment the samples were prepared as followed: (1) P4 alone, (2) P4, T1 and T8 annealed prior to the measurement, (3) addition of P4 to T8 at 37° C., and (4) addition of P4 to T8 in the presence of T1 at equimolar binding sites. Realtime fluorescence data were collected at 37° C. by Cary Eclipse Fluorescence Spectrometer. (εex=350 nm and εem=480 nm) with slit size.
(§2) To further corroborate these findings, we carried out fluorescent measurements under identical conditions. The samples were excited at 340 nm, and the fluorescent signals were recorded from 345 to 650 nm. Characteristic of the pyrene-pyrene excimer formation is the emission at 480 nm (FIG. 10). […] The samples were markedly different under UV-illumination, such that they could be distinguished with the naked eyes (FIG. 11).

[3] = system: RNA targets containing r(CUGCUG)-repeats (T1-T8); test: Steady-state fluorescent measurements of P4-RNA duplexes (pyrene excimer emission); conditions: P4 1 μM, equimolar binding sites T1-T8; 37° C., 1 hr
Protocol: as §1
Steady-State Fluorescent Measurements: All steady-state fluorescence samples were prepared by mixing P4-RNA duplexes at the indicated concentrations in a simulated physiological buffer and annealed by incubation at 90° C. for 5 min, followed by a gradual cooling to 37° C. The samples were incubated at 37° C. for 1 hr before the measurements. Steady-state fluorescence data were collected at 37° C. by Cary Eclipse Fluorescence Spectrometer. (εex=350 nm and εem=480 nm) with slit size.
as §2

[4] = system: rCUG^exp-MBNL1 complex (T48 with GST-MBNL1-F1); test: Analysis of T48-MBNL1 disruption by probe (gel-shift assay); assay type: biochemical; conditions: T48 25 nM, GST-MBNL1-F1 400 nM; increasing probe concentrations
Protocol: FIG. 13. Displacement of MBNL1 from T48 by P4. P-T48 was allowed to form complexes with GST-MBNL1-FI prior to the addition of P4. The samples were prepared in a physiologically relevant buffer at the final T48 and GST-MBNL1-FI concentration of 25 nM and 400 nM, respectively.
Analysis of T48-MBNL1 Disruption by Probe: T48 and GST-MBNL1-F1 were prepared as previously described. Radioisotopically labeled T48 was incubated with GST-MBNL1-F1 in buffer containing 50 mM Tris, 50 mM NaCl, 50 mM KCl and 1 mM MgCl2 (pH 8.0) at the indicated concentrations at 25° C. for 30 minutes. The indicated concentration of P4 was added to T48-MBNL1 complex. The samples were immediately loaded to 1.5% agarose gels with 1× Tris-borate buffer and electrophoretically separated at 100 V for 2 hrs. The bands were visualized by phosphorimaging and quantified with ImageQuant (Molecular Dynamics).
Next, we determined whether P4 can disrupt the rCUG^exp-MBNL1 complex by performing a gel-shift assay. The RNA-protein complex was prepared by incubating 5′-^32P-labelled T48 with MBNL1 at a physiologically relevant condition. Upon confirmation of their binding, P4 was added and the resulting mixtures were incubated at 37° C. for 4 hrs prior to their analysis by nondenaturing PAGE and autoradiography. Formation of the T48-MBNL1 complexes is evident by the smeared patterns observed in lanes 2 through 4 of FIG. 13. […]

[5] = system: normal-length T6 and pathogenic T48 [r(CUG)96] RNA; test: Competitive binding assay (agarose gel, SYBR-Gold); conditions: equimolar binding-sites of T6 and T48, 37° C. for 16 hrs
Protocol: FIG. 12. Selective binding of r(CUGCUG)n-RNA transcripts by P4. The samples were prepared by mixing pre-annealed RNAs with probes at 37° C. for 4 hrs. The ratios of P4 to the total RNA binding-sites were 0 (lane 3), ¼ (lane 4), ½ (lane 5), 1/1 (lane 6); and for the mismatched P5 at 1/1 (lane 7). Competitive Binding Assay: T6 was purchased from IDT. T48, the same as r(CUG)96, was prepared as previous described, except that the DNA template was (CTG)96. T6 and T48 were separately annealed by heating up to 90° C. for 5 min and gradually cooled to room temperature. Probes and RNA targets were mixed at the indicated concentrations and incubated in a physiologically simulated buffer at 37° C. for 4 hr in silicon-coated Eppendorf tubes. The samples were then loaded onto 2% agarose-gel containing IX SYBR-Gold with Tris-borate buffer and electrophoretically separated at 100 V for 15 min. The bands were visualized by UV-Transilluminator. To assess the recognition selectivity of P4 probe, we carried out a competitive binding assay. Equimolar binding-sites of the normal-length T6 and the pathogenic T48 [r(CUG)96, prepared according to our published protocol, were incubated with different concentrations of P4 at 37° C. for 16 hrs. The resulting mixtures were analyzed by agarose-gel and stained with SYBR-Gold for visualization.

Substance | trend of Tms with number of binding-sites in the targets [1] | recognition selectivity / binding to T48 versus T6 [5] | differences in the Tms of RNAs with mismatched probes [1] | other results
H-^L-Arg-CAGCAG-^LArg-NH2 [P1] | plateaued at X˜3 | – | – | –
H-^LArg-^LLys(Pyr)-CAGCAG-^LLys(Pyr)-^LArg-NH2 [P4] | monotonically increased with the number of binding-sites | able to discriminate the pathogenic T48 from the wt-T12 | – | binding cooperativity (UV-melting profiles) ([1]; with T6, T6 1 μM, probe 6 μM, physiologically relevant buffer, comparison of linker lengths P2 through P4): highest degree of binding cooperativity; also recorded: cooperative binding was clearly observed; hybridization lag-time with competing T1 strand ([2]; P4 1 μM added to T1 1 μM + T8 ⅛ μM (equimolar binding-sites) at 37° C.): 2 min; time to nearly complete hybridization to T8 ([2]; P4 1 μM added to T8 ⅛ μM at 37° C., fluorescence at 480 nm): ≤ 10 min; interaction with single-binding-site RNA ([2]; physiologically simulated condition, T1 competitor): weak and transient; fluorescent intensities at 480 nm (pyrene-pyrene excimer) with number of binding-sites in RNAs [3]: gradual increase in the fluorescent intensities at 480 nm; disruption of rCUG^exp-MBNL1 complex / displacement of MBNL1 from T48 [4]: able to disrupt the rCUG^exp-MBNL1 complex
H-^LArg-^LLys(Pyr)-CATCAG-^LLys(Pyr)-^LArg-NH2 [P5] | – | No evidence of binding | no discernible differences | –
H-^LArg-^LLys(Pyr)-CTGCTG-^LLys(Pyr)-^LArg-NH2 [P6] | – | – | no discernible differences | –

Reference: patent US11859242B2, “Template-directed nucleic acid targeting compounds” (Carnegie Mellon University, priority 2017, dated 2024)
